Data: ChEMBL document CHEMBL3612057, “Discovery of indolizines containing triazine moiety as new leads for the development of antitumoral agents targeting mitotic events” (2015)
The source made the active and inactive calls. No cut-off for these calls is given here.

Key:
CCRF-CEM = experiment: Cytotoxicity against human CCRF-CEM cells assessed as growth inhibition at 10 uM after 24 hrs by SRB assay; type: functional; conditions: read-out: GI
HL-60(TB) = experiment: Cytotoxicity against human HL-60(TB) cells assessed as growth inhibition at 10 uM after 24 hrs by SRB assay; type: functional
K562 = experiment: Cytotoxicity against human K562 cells assessed as growth inhibition at 10 uM after 24 hrs by SRB assay; type: functional; conditions: for inhibition of growth at 10 µM: K562, 24 h, read-out: GI
RPMI-8226 = experiment: Cytotoxicity against human RPMI8226 cells assessed as growth inhibition at 10 uM after 24 hrs by SRB assay; type: functional; conditions: RPMI-8226, 24 h, read-out: GI
SR = experiment: Cytotoxicity against human SR cells assessed as growth inhibition at 10 uM after 24 hrs by SRB assay; type: functional; conditions: read-out: GI
A549 = experiment: Cytotoxicity against human A549 cells assessed as growth inhibition at 10 uM after 24 hrs by SRB assay; type: functional; conditions: A549, 24 h, read-out: GI
HOP-62 = experiment: Cytotoxicity against human HOP62 cells assessed as growth inhibition at 10 uM after 24 hrs by SRB assay; type: functional; conditions: for inhibition of growth at 10 µM: HOP-62, 24 h, read-out: GI
HOP-92 = experiment: Cytotoxicity against human HOP92 cells assessed as growth inhibition at 10 uM after 24 hrs by SRB assay; type: functional
NCI-H226 = experiment: Cytotoxicity against human NCI-H226 cells assessed as growth inhibition at 10 uM after 24 hrs by SRB assay; type: functional
NCI-H460 = experiment: Cytotoxicity against human NCI-H460 cells assessed as growth inhibition at 10 uM after 24 hrs by SRB assay; type: functional; conditions: for inhibition of growth at 10 µM: NCI-H460, 24 h, read-out: GI
NCI-H522 = experiment: Cytotoxicity against human NCI-H522 cells assessed as growth inhibition at 10 uM after 24 hrs by SRB assay; type: functional; conditions: NCI-H522, 24 h, read-out: GI
HCT-116 = experiment: Cytotoxicity against human HCT116 cells assessed as growth inhibition at 10 uM after 24 hrs by SRB assay; type: functional; conditions: for inhibition of growth at 10 µM: HCT-116, 24 h, read-out: GI
SF-295 = experiment: Cytotoxicity against human SF295 cells assessed as growth inhibition at 10 uM after 24 hrs by SRB assay; type: functional; conditions: SF-295, 24 h, read-out: GI
SF-539 = experiment: Cytotoxicity against human SF539 cells assessed as growth inhibition at 10 uM after 24 hrs by SRB assay; type: functional; conditions: for inhibition of growth at 10 µM: SF-539, 24 h, read-out: GI
SNB-75 = experiment: Cytotoxicity against human SNB75 cells assessed as growth inhibition at 10 uM after 24 hrs by SRB assay; type: functional; conditions: SNB-75, 24 h, read-out: GI
U-251 = experiment: Cytotoxicity against human U251 cells assessed as growth inhibition at 10 uM after 24 hrs by SRB assay; type: functional
Malme-3M = experiment: Cytotoxicity against human MALME-3M cells assessed as growth inhibition at 10 uM after 24 hrs by SRB assay; type: functional; conditions: for inhibition of growth at 10 µM: read-out: GI
MDA-MB-435 = experiment: Cytotoxicity against human MDA-MB-435 cells assessed as growth inhibition at 10 uM after 24 hrs by SRB assay; type: functional
SK-MEL-28 = experiment: Cytotoxicity against human SK-MEL-28 cells assessed as growth inhibition at 10 uM after 24 hrs by SRB assay; type: functional; conditions: for inhibition of growth at 10 µM: SK-MEL-28, 24 h, read-out: GI
SK-MEL-5 = experiment: Cytotoxicity against human SK-MEL-5 cells assessed as growth inhibition at 10 uM after 24 hrs by SRB assay; type: functional; conditions: for inhibition of growth at 10 µM: SK-MEL-5, 24 h, read-out: GI
UACC-257 = experiment: Cytotoxicity against human UACC257 cells assessed as growth inhibition at 10 uM after 24 hrs by SRB assay; type: functional
UACC-62 = experiment: Cytotoxicity against human UACC62 cells assessed as growth inhibition at 10 uM after 24 hrs by SRB assay; type: functional; conditions: UACC-62, 24 h, read-out: GI
OVCAR-3 = experiment: Cytotoxicity against human OVCAR3 cells assessed as growth inhibition at 10 uM after 24 hrs by SRB assay; type: functional; conditions: for inhibition of growth at 10 µM: OVCAR-3, 24 h, read-out: GI
OVCAR-4 = experiment: Cytotoxicity against human OVCAR4 cells assessed as growth inhibition at 10 uM after 24 hrs by SRB assay; type: functional
OVCAR-8 = experiment: Cytotoxicity against human OVCAR8 cells assessed as growth inhibition at 10 uM after 24 hrs by SRB assay; type: functional; conditions: OVCAR-8, 24 h, read-out: GI
NCI/ADR-RES = experiment: Cytotoxicity against human NCI/ADR-RES cells assessed as growth inhibition at 10 uM after 24 hrs by SRB assay; type: functional; conditions: for inhibition of growth at 10 µM: read-out: GI
SK-OV-3 = experiment: Cytotoxicity against human SKOV3 cells assessed as growth inhibition at 10 uM after 24 hrs by SRB assay; type: functional; conditions: for inhibition of growth at 10 µM: SK-OV-3, 24 h, read-out: GI
786-0 = experiment: Cytotoxicity against human 786-0 cells assessed as growth inhibition at 10 uM after 24 hrs by SRB assay; type: functional
ACHN = experiment: Cytotoxicity against human ACHN cells assessed as growth inhibition at 10 uM after 24 hrs by SRB assay; type: functional; conditions: read-out: GI
CAKI-1 = experiment: Cytotoxicity against human CAKI-1 cells assessed as growth inhibition at 10 uM after 24 hrs by SRB assay; type: functional; conditions: for inhibition of growth at 10 µM: CAKI-1, 24 h, read-out: GI
RXF 393 = experiment: Cytotoxicity against human RXF393 cells assessed as growth inhibition at 10 uM after 24 hrs by SRB assay; type: functional; conditions: RXF 393, 24 h, read-out: GI
TK-10 = experiment: Cytotoxicity against human TK10 cells assessed as growth inhibition at 10 uM after 24 hrs by SRB assay; type: functional
PC-3 = experiment: Cytotoxicity against human PC3 cells assessed as growth inhibition at 10 uM after 24 hrs by SRB assay; type: functional; conditions: PC-3, 24 h, read-out: GI
MCF7 = experiment: Cytotoxicity against human MCF7 cells assessed as growth inhibition at 10 uM after 24 hrs by SRB assay; type: functional; conditions: MCF7, 24 h, read-out: GI
MDA-MB-231 = experiment: Cytotoxicity against human MDA-MB-231 cells assessed as growth inhibition at 10 uM after 24 hrs by SRB assay; type: functional; conditions: MDA-MB-231, 24 h, read-out: GI
[1] = Cytotoxicity against human Hs578T cells assessed as growth inhibition at 10 uM after 24 hrs by SRB assay; type: functional; conditions: Hs-578T, read-out: GI
T47D = experiment: Cytotoxicity against human T47D cells assessed as growth inhibition at 10 uM after 24 hrs by SRB assay; type: functional; conditions: for inhibition of growth at 10 µM: read-out: GI
Ovis aries = species on record: Ovis aries; experiment: Inhibition of sheep tubulin polymerization at 100 uM by fluorescence assay

Row | Compound | inhibition of growth at 10 µM (CCRF-CEM) | inhibition of growth at 10 µM (K562) | inhibition of growth at 10 µM (RPMI-8226) | inhibition of growth at 10 µM (SR) | inhibition of growth at 10 µM (A549) | growth inhibition (GI) (HOP-92) | growth inhibition (GI) (NCI-H226) | inhibition of growth at 10 µM (NCI-H522) | inhibition of growth at 10 µM (SF-295) | inhibition of growth at 10 µM (SNB-75) | growth inhibition (GI) (UACC-257) | inhibition of growth at 10 µM (UACC-62) | inhibition of growth at 10 µM (OVCAR-8) | inhibition of growth at 10 µM (ACHN) | inhibition of growth at 10 µM (RXF 393) | inhibition of growth at 10 µM (PC-3) | inhibition of growth at 10 µM (MCF7) | inhibition of growth at 10 µM (MDA-MB-231) | inhibition of growth at 10 µM [1] | inhibition (Ovis aries) | other results
1 | COc1nc(OC)nc(-c2cc(C(=O)c3cc(OC)c(OC)c(OC)c3)n3c(C)cccc23)n1 | 10% | 45% | 10% | 67% | 17% | inactive | inactive | 56% | 15% | 67% | inactive | 30% | 12% | 30% | 31% | 19% | 55% | 17% | 17% | inactive | inhibition of growth at 10 µM (HL-60(TB); HL-60, 24 h, read-out: GI): 33%; inhibition of growth at 10 µM (HOP-62): 34%; growth inhibition (GI) (NCI-H460): inactive; inhibition of growth at 10 µM (HCT-116): 15%; inhibition of growth at 10 µM (SF-539): 14%; growth inhibition (GI) (U-251): inactive; inhibition of growth at 10 µM (Malme-3M): 37%; inhibition of growth at 10 µM (MDA-MB-435; MDA-MB-435, 24 h, read-out: GI): 86%; inhibition of growth at 10 µM (SK-MEL-28): 14%; inhibition of growth at 10 µM (SK-MEL-5): 41%; inhibition of growth at 10 µM (OVCAR-3): 19%; growth inhibition (GI) (OVCAR-4): inactive; inhibition of growth at 10 µM (NCI/ADR-RES): 15%; inhibition of growth at 10 µM (SK-OV-3): 18%; growth inhibition (GI) (786-0): inactive; inhibition of growth at 10 µM (CAKI-1): 11%; growth inhibition (GI) (TK-10): inactive; growth inhibition (GI) (T47D): inactive
2 | COc1nc(OC)nc(-c2cc(C(=O)c3cc(OC)c(OC)c(OC)c3)n3c(-c4ccccc4)cccc23)n1 | 62% | 29% | 52% | 29% | 28% | inactive | inactive | 11% | 40% | 23% | inactive | 39% | 41% | 30% | 15% | 37% | 22% | 23% | 14% | inactive | growth inhibition (GI) (HL-60(TB)): inactive; growth inhibition (GI) (HOP-62): inactive; inhibition of growth at 10 µM (NCI-H460): 14%; growth inhibition (GI) (HCT-116): inactive; growth inhibition (GI) (SF-539): inactive; growth inhibition (GI) (U-251): inactive; growth inhibition (GI) (Malme-3M): inactive; growth inhibition (GI) (MDA-MB-435): inactive; growth inhibition (GI) (SK-MEL-28): inactive; inhibition of growth at 10 µM (SK-MEL-5): 67%; inhibition of growth at 10 µM (OVCAR-3): 28%; inhibition of growth at 10 µM (OVCAR-4; OVCAR-4, 24 h, read-out: GI): 18%; inhibition of growth at 10 µM (NCI/ADR-RES): 38%; growth inhibition (GI) (SK-OV-3): inactive; growth inhibition (GI) (786-0): inactive; inhibition of growth at 10 µM (CAKI-1): 43%; growth inhibition (GI) (TK-10): inactive; inhibition of growth at 10 µM (T47D): 32%
3 | COc1nc(OC)nc(-c2cc(C(=O)c3ccc(Cl)cc3)n3ccccc23)n1 | 11% | – | 13% | 26% | 21% | inactive | inactive | 47% | 33% | -3% | inactive | 14% | 24% | 56% | 37% | 19% | 19% | 43% | 46% | inactive | growth inhibition (GI) (HL-60(TB)): inactive; growth inhibition (GI) (K562): inactive; inhibition of growth at 10 µM (HOP-62): 77%; inhibition of growth at 10 µM (NCI-H460): 20%; inhibition of growth at 10 µM (HCT-116): 26%; inhibition of growth at 10 µM (SF-539): 39%; inhibition of growth at 10 µM (U-251; U-251, 24 h, read-out: GI): 44%; inhibition of growth at 10 µM (Malme-3M): 30%; growth inhibition (GI) (MDA-MB-435): inactive; inhibition of growth at 10 µM (SK-MEL-28): 12%; growth inhibition (GI) (SK-MEL-5): inactive; growth inhibition (GI) (OVCAR-3): inactive; growth inhibition (GI) (OVCAR-4): inactive; growth inhibition (GI) (NCI/ADR-RES): inactive; inhibition of growth at 10 µM (SK-OV-3): 55%; inhibition of growth at 10 µM (786-0; 786-0, 24 h, read-out: GI): 31%; growth inhibition (GI) (CAKI-1): inactive; inhibition of growth at 10 µM (TK-10; TK-10, 24 h, read-out: GI): 12%; inhibition of growth at 10 µM (T47D): 19%
